Tests used:
Format in all cases: in vivo
Settings in all cases: 250 g/ha, evaluated after 13 days
[1] = test system: Amaranthus retoflexus (AMARE); assay: Post-emergence Test, glasshouse, AMARE
Experimental: (§1) Seeds of a variety of test species are sown in standard soil in pots Amaranthus retoflexus (AMARE), Echinochloa crus-galli (ECHCG), Setaria faberi (SETFA)). After cultivation for one day (pre-emergence) or after 8 days cultivation (post-emergence) under controlled conditions in a glasshouse (at 24/16° C., day/night; 14 hours light; 65% humidity), the plants are sprayed with an aqueous spray solution derived from the formulation of the technical active ingredient in acetone/water (50:50) solution containing 0.5% Tween™ 20 (polyoxyethelyene sorbitan monolaurate, CAS RN 9005-64-5). Compounds are applied at 250 g/ha unless otherwise stated. The test plants are then grown in a glasshouse under controlled conditions in a glasshouse (at 24/16° C., day/night; 14 hours light; 65% humidity) and watered twice daily. After 13 days for pre- and post-emergence, the test is evaluated for the percentage damage caused to the plant. The biological activities are shown in the following table on a five-point scale (5=81-100%; 4=61-80%; 3=41-60%; 2=21-40%; 1=0-20%).

ABUTH [2] = assay: Post-emergence Test, glasshouse, ABUTH
Experimental: as §1

Setaria faberi (SETFA) [3] = assay: Post-emergence Test, glasshouse, SETFA
Experimental: as §1

[4] = test system: Echinochloa crus-galli (ECHCG); assay: Post-emergence Test, glasshouse, ECHCG
Experimental: as §1

IPOHE [5] = assay: Post-emergence Test, glasshouse, IPOHE
Experimental: as §1

[6] = test system: Amaranthus retoflexus (AMARE); assay: Pre-emergence Test, glasshouse, AMARE
Experimental: as §1

ABUTH [7] = assay: Pre-emergence Test, glasshouse, ABUTH
Experimental: as §1

Setaria faberi (SETFA) [8] = assay: Pre-emergence Test, glasshouse, SETFA
Experimental: as §1

[9] = test system: Echinochloa crus-galli (ECHCG); assay: Pre-emergence Test, glasshouse, ECHCG
Experimental: as §1

IPOHE [10] = assay: Pre-emergence Test, glasshouse, IPOHE
Experimental: as §1

SMILES | percentage damage caused to the plant, five-point scale, AMARE [1] | percentage damage caused to the plant, five-point scale, ABUTH (ABUTH [2]) | percentage damage caused to the plant, five-point scale, SETFA (Setaria faberi (SETFA) [3]) | percentage damage caused to the plant, five-point scale, ECHCG [4] | percentage damage caused to the plant, five-point scale, IPOHE (IPOHE [5]) | percentage damage caused to the plant, five-point scale, AMARE [6] | percentage damage caused to the plant, five-point scale, ABUTH (ABUTH [7]) | percentage damage caused to the plant, five-point scale, SETFA (Setaria faberi (SETFA) [8]) | percentage damage caused to the plant, five-point scale, ECHCG [9] | percentage damage caused to the plant, five-point scale, IPOHE (IPOHE [10])
Fc1cc(Cl)cnc1Oc1cccc2cnn(CCCC(F)(F)F)c12 [Compound 1.002] | 2 (2=21-40%) | 2 (2=21-40%) | 3 (3=41-60%) | 3 (3=41-60%) | 1 (1=0-20%) | 1 (1=0-20%) | 1 (1=0-20%) | 2 (2=21-40%) | 2 (2=21-40%) | 1 (1=0-20%)
FC(F)(F)CCCn1ccc2cccc(Oc3ncc(Cl)cn3)c21 [Compound 1.003] | 3 (3=41-60%) | 2 (2=21-40%) | 1 (1=0-20%) | 1 (1=0-20%) | 2 (2=21-40%) | 1 (1=0-20%) | 1 (1=0-20%) | 1 (1=0-20%) | 1 (1=0-20%) | 1 (1=0-20%)
Fc1cc(Cl)cnc1Oc1cccc2ccn(CCCC(F)(F)F)c12 [Compound 1.004] | 3 (3=41-60%) | 1 (1=0-20%) | 1 (1=0-20%) | 1 (1=0-20%) | 2 (2=21-40%) | 1 (1=0-20%) | 1 (1=0-20%) | 2 (2=21-40%) | 1 (1=0-20%) | 1 (1=0-20%)
FC(F)(F)CCCn1nc(Cl)c2cccc(Oc3ncc(Cl)cn3)c21 [Compound 1.005, 3-chloro-7-(5-chloropyrimidin-2-yl)oxy-1-(4,4,4-trifluorobutyl)indazole] | 5 (5=81-100%) | 5 (5=81-100%) | 5 (5=81-100%) | 5 (5=81-100%) | 3 (3=41-60%) | 5 (5=81-100%) | 3 (3=41-60%) | 5 (5=81-100%) | 5 (5=81-100%) | 1 (1=0-20%)
FC(F)(F)CCCn1nc(Br)c2cccc(Oc3ncc(Cl)cn3)c21 [Compound 1.006, 3-bromo-7-(5-chloropyrimidin-2-yl)oxy-1-(4,4,4-trifluorobutyl)indazole] | 5 (5=81-100%) | 5 (5=81-100%) | 4 (4=61-80%) | 5 (5=81-100%) | 2 (2=21-40%) | 5 (5=81-100%) | 2 (2=21-40%) | 5 (5=81-100%) | 5 (5=81-100%) | 1 (1=0-20%)
N#Cc1nn(CCCC(F)(F)F)c2c(Oc3ncc(Cl)cn3)cccc12 [Compound 1.007, 7-(5-chloropyrimidin-2-yl)oxy-1-(4,4,4-trifluorobutyl)indazole-3-carbonitrile] | 5 (5=81-100%) | 5 (5=81-100%) | 5 (5=81-100%) | 5 (5=81-100%) | 4 (4=61-80%) | 5 (5=81-100%) | 3 (3=41-60%) | 5 (5=81-100%) | 5 (5=81-100%) | 2 (2=21-40%)
N#Cc1cc(Cl)cnc1Oc1cccc2c(Cl)nn(CCCC(F)(F)F)c12 [Compound 1.008] | 5 (5=81-100%) | 4 (4=61-80%) | 4 (4=61-80%) | 4 (4=61-80%) | 2 (2=21-40%) | 4 (4=61-80%) | 2 (2=21-40%) | 4 (4=61-80%) | 4 (4=61-80%) | 1 (1=0-20%)
FC(F)(F)CCCn1nc(Cl)c2cc(Br)cc(Oc3ncc(Cl)cn3)c21 [Compound 1.010, 5-bromo-3-chloro-7-(5-chloropyrimidin-2-yl)oxy-1-(4,4,4-trifluorobutyl)indazole] | 4 (4=61-80%) | 1 (1=0-20%) | 2 (2=21-40%) | 2 (2=21-40%) | 1 (1=0-20%) | 4 (4=61-80%) | 1 (1=0-20%) | 2 (2=21-40%) | 2 (2=21-40%) | 1 (1=0-20%)
FC(F)(F)CCCn1ncc2cc(Br)cc(Oc3ncc(Cl)cn3)c21 [Compound 1.011, 5-bromo-7-(5-chloropyrimidin-2-yl)oxy-1-(4,4,4-trifluorobutyl)indazole] | 3 (3=41-60%) | 1 (1=0-20%) | 1 (1=0-20%) | 1 (1=0-20%) | 1 (1=0-20%) | 1 (1=0-20%) | 1 (1=0-20%) | 1 (1=0-20%) | 1 (1=0-20%) | 1 (1=0-20%)
COc1cc(Oc2cccc3cnn(CCCC(F)(F)F)c23)ncn1 [Compound 1.012] | 1 (1=0-20%) | 1 (1=0-20%) | 1 (1=0-20%) | 1 (1=0-20%) | 1 (1=0-20%) | 2 (2=21-40%) | 1 (1=0-20%) | 1 (1=0-20%) | 1 (1=0-20%) | 1 (1=0-20%)
FC(F)(F)CCCn1ncc2c(Cl)ccc(Oc3ncc(Cl)cn3)c21 [Compound 1.013, 4-chloro-7-(5-chloropyrimidin-2-yl)oxy-1-(4,4,4-trifluorobutyl)indazole] | 5 (5=81-100%) | 5 (5=81-100%) | 5 (5=81-100%) | 5 (5=81-100%) | 2 (2=21-40%) | 5 (5=81-100%) | 2 (2=21-40%) | 5 (5=81-100%) | 5 (5=81-100%) | 1 (1=0-20%)
N#Cc1cc(Cl)cnc1Oc1cccc2cnn(CCCC(F)(F)F)c12 [Compound 1.014] | 4 (4=61-80%) | 4 (4=61-80%) | 3 (3=41-60%) | 2 (2=21-40%) | 2 (2=21-40%) | 4 (4=61-80%) | 1 (1=0-20%) | 4 (4=61-80%) | 4 (4=61-80%) | 1 (1=0-20%)

Reference: patent publication US20230002357A1, “7-PYRIMIDINE-2-YL-OXY-INDAZOLE DERIVATIVES AND THEIR USE AS HERBICIDES” (SYNGENTA CROP PROTECTION AG, priority 2019, published 2023)
